# How the values were obtained:
# [1] = target: T1, E3 ubiquitin-protein ligase CBL-B (Homo sapiens, UniProt Q13191); assay: Inhibition of biotinylated recombinant Cbl-b (36 to 427 residues)(unknown origin) expressed in Escherichia coli BL21(DE3) Tuner cells assessed as decrease in ZAP70 ubiquitination incubated for 60 mins in presence of Ub-FITC/ATP by TR-FRET assay
# [2] = target: T1, E3 ubiquitin-protein ligase CBL-B; assay: Inhibition of biotinylated recombinant Cbl-b (36 to 427 residues)(unknown origin) expressed in Escherichia coli BL21(DE3) Tuner cells assessed as decrease in Cbl-b auto-ubiquitination incubated for 60 mins in presence of Ub-FITC/ATP by TR-FRET assay
# [3] = Lipophilicity, logD of compound at pH 7.4; type: physicochemical; conditions: buffer
# [4] = Clearance in rat hepatocytes assessed as measured per million cells at 0.1 to 1 uM measured for 120 mins by LC-MS/MS analysis; type: ADME, cell-based, Hepatocyte; conditions: dose 0.1-1 µM
# [5] = Stability in human liver microsome assessed as intrinsic clearance; type: ADME; conditions: liver microsomes, read-out: CLH
# [6] = Induction of IL-2 production in human T cells; type: functional, cell-based, T-cell
# [7] = target: E3 ubiquitin-protein ligase CBL (Homo sapiens, UniProt P22681); assay: Inhibition of cCbl (unknown origin) by TR-FRET assay
# [8] = target: T1, E3 ubiquitin-protein ligase CBL-B; assay: Inhibition of biotinylated recombinant Cbl-b (36 to 427 residues)(unknown origin) expressed in Escherichia coli BL21(DE3) Tuner cells using a FAM-labeled probe by TR-FRET assay
# [9] = Half life in Wistar Han rat at 0.5 mg/kg, iv measured for 24 hrs by LC-MS/MS analysis; type: ADME, organism-based; conditions: in vivo
# [10] = Oral bioavailability in Wistar Han rat at 1 mg/kg measured for 24 hrs by LC-MS/MS analysis; type: ADME, organism-based; conditions: in vivo
# [11] = Oral bioavailability in CD1 mouse at 1 mg/kg measured for 24 hrs by LC-MS/MS analysis; type: ADME, organism-based; conditions: in vivo
# [12] = Tmax in Wistar Han rat at 1 mg/kg, po measured for 24 hrs by LC-MS/MS analysis; type: ADME, organism-based; conditions: in vivo
# [13] = Volume of distribution at steady state in CD1 mouse at 0.5 mg/kg, iv measured for 24 hrs by LC-MS/MS analysis; type: ADME, organism-based; conditions: in vivo, read-out: Vdss
# [14] = Volume of distribution at steady state in Wistar Han rat at 0.5 mg/kg, iv measured for 24 hrs by LC-MS/MS analysis; type: ADME, organism-based; conditions: in vivo, read-out: Vdss
# [15] = Clearance in human hepatocytes assessed as measured per million cells at 0.1 to 1 uM measured for 120 mins by LC-MS/MS analysis; type: ADME, cell-based, Hepatocyte; conditions: dose 0.1-1 µM, read-out: CLH
# [16] = Clearance in Wistar Han rat at 0.5 mg/kg, iv measured for 24 hrs by LC-MS/MS analysis; type: ADME, organism-based; conditions: in vivo
# [17] = Half life in CD1 mouse at 0.5 mg/kg, iv measured for 24 hrs by LC-MS/MS analysis; type: ADME, organism-based; conditions: in vivo
# [18] = Tmax in CD1 mouse at 1 mg/kg, po measured for 24 hrs by LC-MS/MS analysis; type: ADME, organism-based; conditions: in vivo
# [19] = Clearance in CD1 mouse at 0.5 mg/kg, iv measured for 24 hrs by LC-MS/MS analysis; type: ADME, organism-based; conditions: in vivo
# [20] = Cmax in CD1 mouse at 1 mg/kg, po measured for 24 hrs by LC-MS/MS analysis; type: ADME, organism-based; conditions: in vivo
# [21] = Cmax in Wistar Han rat at 1 mg/kg, po measured for 24 hrs by LC-MS/MS analysis; type: ADME, organism-based; conditions: in vivo
# [22] = AUC (infinity) in Wistar Han rat at 1 mg/kg, po measured for 24 hrs by LC-MS/MS analysis; type: ADME, organism-based; conditions: in vivo
# [23] = AUC (infinity) in CD1 mouse at 1 mg/kg, po measured for 24 hrs by LC-MS/MS analysis; type: ADME, organism-based; conditions: in vivo
# T1 sequence (Q13191 whole entry, the tested form may be a part): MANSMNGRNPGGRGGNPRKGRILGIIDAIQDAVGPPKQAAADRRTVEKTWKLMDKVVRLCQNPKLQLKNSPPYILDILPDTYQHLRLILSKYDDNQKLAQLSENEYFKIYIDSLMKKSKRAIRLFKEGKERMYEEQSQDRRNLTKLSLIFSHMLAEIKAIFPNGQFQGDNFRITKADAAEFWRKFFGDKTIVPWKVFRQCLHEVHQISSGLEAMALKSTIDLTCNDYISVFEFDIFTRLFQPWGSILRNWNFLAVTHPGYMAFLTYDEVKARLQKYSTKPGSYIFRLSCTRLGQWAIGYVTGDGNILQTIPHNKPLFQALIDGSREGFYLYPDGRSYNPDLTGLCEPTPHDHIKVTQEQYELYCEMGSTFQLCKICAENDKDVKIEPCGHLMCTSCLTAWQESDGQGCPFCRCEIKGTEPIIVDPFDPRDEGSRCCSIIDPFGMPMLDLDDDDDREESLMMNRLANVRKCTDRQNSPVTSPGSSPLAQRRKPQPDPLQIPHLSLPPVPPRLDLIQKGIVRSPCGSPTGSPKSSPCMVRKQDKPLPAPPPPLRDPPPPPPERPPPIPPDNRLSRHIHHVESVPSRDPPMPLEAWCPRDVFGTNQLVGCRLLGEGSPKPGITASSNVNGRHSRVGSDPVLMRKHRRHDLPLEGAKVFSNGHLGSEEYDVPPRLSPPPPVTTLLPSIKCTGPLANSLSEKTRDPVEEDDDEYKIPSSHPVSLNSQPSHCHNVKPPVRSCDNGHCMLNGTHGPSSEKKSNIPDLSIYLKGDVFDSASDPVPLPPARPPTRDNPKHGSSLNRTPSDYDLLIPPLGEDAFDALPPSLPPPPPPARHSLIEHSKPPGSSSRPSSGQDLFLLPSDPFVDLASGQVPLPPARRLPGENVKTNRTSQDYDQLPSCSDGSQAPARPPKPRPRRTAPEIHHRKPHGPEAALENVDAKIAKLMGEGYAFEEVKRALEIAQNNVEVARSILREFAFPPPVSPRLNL
Structure (SMILES),logD [3],hepatocyte CLint at up to 1 µM [4] [µL/min/1e6 cells],microsomal CLint [5] [µL/min/mg],"EC50 ([6]; Homo sapiens, T-cell) [nM]",IC50 [7] [nM],IC50 [8] [nM],further results
C[C@@H](COCCC(=O)N1CCN2c3ncc(C(F)(F)F)cc3NC(=O)C2C1)Nc1cn[nH]c(=O)c1C(F)(F)F (stereo partly drawn),–,–,–,–,–,–,IC50 [1]: 26.9 nM; IC50 [2]: 30.7 nM
Cn1cc(C(F)(F)F)c2cc(-c3cccc([C@]4(c5nncn5C)C[C@@H](C)C4)c3)c(=O)[nH]c21,3.8,–,83,–,860,190,–
C[C@@H](c1cnn(C)c1)n1cc(C(F)(F)F)cc(-c2cccc([C@]3(c4nncn4C)C[C@@H](C)C3)c2)c1=O,2.8,6.4,160,–,–,–,half-life [9]: 27 min; bioavailability [10]: 15%; bioavailability [11]: 19%; Tmax [12]: 45 min; Vd [13]: 1.3 L/kg; Vd [14]: 1.6 L/kg; hepatocyte CLint at up to 1 µM [15]: 8.7 µL/min/1e6 cells; clearance [16]: 55 mL/min/kg; EC50 ([6]; t-cell): 230 nM; half-life [17]: 18 min; Tmax [18]: 4.98 min; clearance [19]: 100 mL/min/kg; Cmax [20]: 35 ng/mL; Cmax [21]: 21 ng/mL; AUC(0-inf) [22]: 46 ng·h/mL; AUC(0-inf) [23]: 30 ng·h/mL
Cn1cnnc1[C@]1(c2cccc(-c3cc(OC(F)(F)F)c[nH]c3=O)c2)C[C@H](C)C1,2.6,–,3,–,1700,310,–
CC#C[C@H](C)n1cc(C(F)(F)F)cc(-c2cccc([C@]3(c4nncn4C)C[C@@H](C)C3)c2)c1=O,3.9,24,190,460,40,30,–
Cn1cnnc1[C@]1(c2cccc(-c3cc(C4CC4)c[nH]c3=O)c2)C[C@H](C)C1,2.4,–,29,–,1340,360,–
Cn1cnnc1[C@]1(c2cccc(-c3nc(C(F)(F)F)c[nH]c3=O)c2)C[C@H](C)C1,2.1,–,15,–,6550,890,–
Cc1nnc(Cn2cc(C(F)(F)F)cc(-c3cccc([C@]4(c5nncn5C)C[C@@H](C)C4)c3)c2=O)o1,1.7,7.8,29,2860,330,70,hepatocyte CLint at up to 1 µM [15]: 1.7 µL/min/1e6 cells
CN1CCC(Cn2cc(C(F)(F)F)cc(-c3cccc([C@]4(c5nncn5C)C[C@@H](C)C4)c3)c2=O)CC1,1.3,13,47,16700,460,74,–
Cn1cnnc1[C@]1(c2cccc(-n3cc(C(F)(F)F)ccc3=O)c2)C[C@H](C)C1,1.6,–,15,–,10300,2100,–
Cn1cnnc1[C@]1(c2cccc(-c3cc(C(F)(F)F)c[nH]c3=O)c2)C[C@H](C)C1,3.58,16,2.5,–,580,84,–
Cn1cnnc1C[C@]1(c2cccc(-c3cc(C(F)(F)F)c[nH]c3=O)c2)C[C@H](C#N)C1,1.1,–,6.8,> 30000,960,160,–
COc1c[nH]c(=O)c(-c2cccc([C@]3(c4nncn4C)C[C@@H](C)C3)c2)c1,1.5,–,9.7,–,11600,2680,–
C[C@H](c1cnn(C)c1)n1cc(C(F)(F)F)cc(-c2cccc([C@]3(c4nncn4C)C[C@@H](C)C3)c2)c1=O,2.9,21,220,590,–,–,–
CN1CC[C@H](Cn2cc(C(F)(F)F)cc(-c3cccc([C@]4(c5nncn5C)C[C@@H](C)C4)c3)c2=O)C1,1.1,2.4,13,10800,330,50,–
Cn1cnnc1[C@@H](c1cccc(-c2cc(C(F)(F)F)c[nH]c2=O)c1)C1CCC1 (racemic),2.5,–,25,5290,410,59,–

# Now from value to compound, other results behind:
logD [3],hepatocyte CLint at up to 1 µM [4] [µL/min/1e6 cells],microsomal CLint [5] [µL/min/mg],"EC50 ([6]; Homo sapiens, T-cell) [nM]",IC50 [7] [nM],IC50 [8] [nM],Structure (SMILES),further results
3.3,21,76,850,160,34,CC#CCn1cc(C(F)(F)F)cc(-c2cccc([C@]3(c4nncn4C)C[C@@H](C)C3)c2)c1=O,–
2.2,12,85,440,50,40,C[C@@H](C#N)n1cc(C(F)(F)F)cc(-c2cccc([C@]3(c4nncn4C)C[C@@H](C)C3)c2)c1=O,–
2.1,–,14,3980,2200,340,Cn1cnnc1C1(c2cccc(-c3cc(C(F)(F)F)c[nH]c3=O)c2)CCC1,–
2.7,9.7,200,3000,200,40,Cn1cc(Cn2cc(C(F)(F)F)cc(-c3cccc([C@]4(c5nncn5C)C[C@@H](C)C4)c3)c2=O)cn1,–
2.6,–,3,–,6300,1470,Cc1c[nH]c(=O)c(-c2cccc([C@]3(c4nncn4C)C[C@@H](C)C3)c2)c1,–
4.4,–,21,–,> 100000,> 100000,Cn1cnnc1[C@]1(c2cccc(-c3cc(C(F)(F)F)ccc3O)c2)C[C@H](C)C1,–
2.4,32,130,2530,190,50,Cn1cnc(Cn2cc(C(F)(F)F)cc(-c3cccc([C@]4(c5nncn5C)C[C@@H](C)C4)c3)c2=O)c1,–
2.3,8.1,79,1680,40,30,Cn1cc(Cn2cc(C(F)(F)F)cc(-c3cccc([C@]4(c5nncn5C)C[C@@H](C)C4)c3)c2=O)nn1,–
2.4,16,37,5890,880,145,Cn1cc(C(F)(F)F)cc(-c2cccc([C@]3(c4nncn4C)C[C@@H](C)C3)c2)c1=O,–

# — ChEMBL document CHEMBL5537183, “Discovery, Optimization, and Biological Evaluation of Arylpyridones as Cbl-b Inhibitors” (J Med Chem, 2024)
